Counter-ions that a name gives are not always drawn. A value given as a limit tells only on which side of the number the result lay.

For 32 molecules, IC50 and activation results are on record in US20250066389A1, “HETEROCYCLIC AMIDES AND METHODS OF USING THE SAME” (Rgenta Therapeutics, Inc., priority 2021, published 2025).

This test deals with PMS1. In words: Mini-Gene Reporter Assay—PMS1 (firefly luciferase mini-gene reporter transiently transfected into HEK293 cells). Type of test: cell-based. The settings on record: Homo sapiens, mini-gene firefly luciferase reporter in HEK293 cells; for activation at 5 µM: read-out: PMS1 % Effect at 5 uM. A digest of the protocol: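 HEK293 cells transiently transfected with a mini-gene construct (skipped exon with flanking introns/exons fused to firefly luciferase, pcDNA3.1) are incubated with compounds in duplicate. Exon inclusion raises luminescence; EC50 fitted by Levenberg-Marquardt; effect also scored at 5 μM.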
For orientation: Reporter assays use an easily measured gene product as a stand-in for the process of interest.

A word on the IC50: it is the midpoint of a concentration-inhibition curve. Low readings indicate greater potency, high ones weaker potency. With `CCOc1nc2nc(C)cn2cc1C(=O)Nc1cnc(N2CCN[C@@H](C)C2)cn1` [Compound 722, (S)-7-ethoxy-2-methyl-N-(5-(3-methylpiperazin-1-yl)pyrazin-2-yl)imidazo[1,2-a]pyrimidine-6-carboxamide formate], the half-maximal inhibitory concentration (IC50) is 1 to 10 µM. Still for that read-out and setting: the result for `CCOc1cc2nc(C)cn2cc1C(=O)Nc1ccc(N2CC[C@@H](NC(C)(C)C)C2)nn1` [Compound 723, (R)—N-(6-(3-(tert-butylamino)pyrrolidin-1-yl)pyridazin-3-yl)-7-ethoxy-2-methylimidazo[1,2-a]pyridine-6-carboxamide] reads 1 to 10 µM; that for `COc1cc2nc(C)cn2cc1C(=O)Nc1ccc(N2C[C@@H](C)N[C@@H](C)C2)cn1` [Compound 724, N-(5-((3R,5S)-3,5-dimethylpiperazin-1-yl)pyridin-2-yl)-7-methoxy-2-methylimidazo[1,2-a]pyridine-6-carboxamide], 1 to 10 µM. The same measure, in the same setting: for `CCOc1nc2nc(C)cn2cc1C(=O)Nc1ccc(N2CCNC3(CC3)C2)nn1` [Compound 725, N-(6-(4,7-diazaspiro[2.5]octan-7-yl)pyridazin-3-yl)-7-ethoxy-2-methylimidazo[1,2-a]pyrimidine-6-carboxamide formic acid] the value was 1 to 10 µM; for `COc1cn2nc(C)cc2cc1C(=O)Nc1ccc(N2CCN[C@@H](C)C2)nn1` [Compound 726, (S)-6-methoxy-2-methyl-N-(6-(3-methylpiperazin-1-yl)pyridazin-3-yl)pyrazolo[1,5-a]pyridine-5-carboxamide hydrochloride], 1 to 10 µM.

`CCOc1cc2nn(C)cc2cc1C(=O)Nc1ccc(C2CCNCC2)nn1` [Compound 728, 6-ethoxy-2-methyl-N-(6-(piperidin-4-yl)pyridazin-3-yl)-2H-indazole-5-carboxamide hydrochloride] returned an IC50 of 1 to 10 µM. Still for that read-out and setting: the result for `CCOc1cc2nc(C)cn2cc1C(=O)Nc1ccc(N2CCN(C)CC2)nn1` [Compound 729, 7-ethoxy-2-methyl-N-(6-(4-methylpiperazin-1-yl)pyridazin-3-yl)imidazo[1,2-a]pyridine-6-carboxamide] reads 1 to 10 µM; that for `CCOc1nc2nn(C)cc2cc1C(=O)Nc1ccc(N2CCNCC2)cn1` [Compound 730, 6-ethoxy-2-methyl-N-(5-(piperazin-1-yl)pyridin-2-yl)-2H-pyrazolo[3,4-b]pyridine-5-carboxamide], 1 to 10 µM. As to `CCOc1nc2nc(C)cn2cc1C(=O)Nc1ccc(N2CCN(C)CC2)nn1` [Compound 731, 7-ethoxy-2-methyl-N-(6-(4-methylpiperazin-1-yl)pyridazin-3-yl)imidazo[1,2-a]pyrimidine-6-carboxamide formic acid], the 50% inhibitory concentration (IC50) lay within 1 to 10 µM. Same read-out and setting: for `CCOc1nc2nc(C)cn2cc1C(=O)Nc1ccc(N2CCNCC2)nn1` [Compound 732, 7-ethoxy-2-methyl-N-(6-(piperazin-1-yl)pyridazin-3-yl)imidazo[1,2-a]pyrimidine-6-carboxamide formate] the value was 1 to 10 µM; for `CCOc1cc2nc(C)cn2cc1C(=O)Nc1ccc(N2CCC(NC(C)(C)C)C2)nn1` (centres unmarked) [Compound 733, N-(6-(3-(tert-butylamino)pyrrolidin-1-yl)pyridazin-3-yl)-7-ethoxy-2-methylimidazo[1,2-a]pyridine-6-carboxamide], 1 to 10 µM; for `CCOc1cc2nn(C)cc2cc1C(=O)Nc1cnc(N2CCNC(C)(C)C2)cn1` [Compound 734, N-(5-(3,3-dimethylpiperazin-1-yl)pyrazin-2-yl)-6-ethoxy-2-methyl-2H-indazole-5-carboxamide hydrochloride], 1 to 10 µM.

Molecule `COc1cc2nc(C)cn2cc1C(=O)Nc1ccc(C2CCNCC2)cn1` [Compound 735, 7-methoxy-2-methyl-N-(5-(piperidin-4-yl)pyridin-2-yl) imidazo[1,2-a]pyridine-6-carboxamide hydrochloride] came in with an IC50 of 1 to 10 µM. Turning to `COc1cc2nn(C)cc2cc1C(=O)Nc1cnc(N2CCN[C@@H](C)C2)cn1` [Compound 736, (S)-6-methoxy-2-methyl-N-(5-(3-methylpiperazin-1-yl)pyrazin-2-yl)-2H-indazole-5-carboxamide hydrochloride], the IC50 was in the range of 1 to 10 µM. Same read-out and setting: for `CCOc1cc2nc(C)cn2cc1C(=O)Nc1ccc(N2CCN(C)[C@@H](C)C2)nn1` [Compound 737, (S)—N-(6-(3,4-dimethylpiperazin-1-yl)pyridazin-3-yl)-7-ethoxy-2-methylimidazo[1,2-a]pyridine-6-carboxamide formate] the value was 1 to 10 µM; for `CCOc1cc2nn(C)cc2cc1C(=O)Nc1ccc(N2CCN3CCC[C@H]3C2)nn1` [Compound 738, (S)-6-ethoxy-N-(6-(hexahydropyrrolo[1,2-a]pyrazin-2(1H)-yl)pyridazin-3-yl)-2-methyl-2H-indazole-5-carboxamide], 1 to 10 µM; for `CCOc1cc2nn(C)cc2cc1C(=O)Nc1ccc(N2CCN3CCC[C@@H]3C2)nn1` [Compound 739, (R)-6-ethoxy-N-(6-(hexahydropyrrolo[1,2-a]pyrazin-2(1H)-yl)pyridazin-3-yl)-2-methyl-2H-indazole-5-carboxamide formate], 1 to 10 µM. Molecule `CCOc1cc2nc(C)cn2cc1C(=O)Nc1ccc(N2C[C@@H](C)N(C)[C@@H](C)C2)nn1` [Compound 740, 7-ethoxy-2-methyl-N-(6-((3S,5R)-3,4,5-trimethylpiperazin-1-yl)pyridazin-3-yl)imidazo[1,2-a]pyridine-6-carboxamide] gave an IC50 of 1 to 10 µM. On the same count and under the same terms, the result for `CCOc1cc2nc(C)cn2cc1C(=O)Nc1cc(C)c(N2CCN[C@@H](C)C2)nn1` [Compound 741, (S)-7-ethoxy-2-methyl-N-(5-methyl-6-(3-methylpiperazin-1-yl)pyridazin-3-yl)imidazo[1,2-a]pyridine-6-carboxamide formate] reads 1 to 10 µM; that for `CCOc1nc2nn(C)cc2cc1C(=O)Nc1cnc(N2CCNCC2)cn1` [Compound 742, 6-ethoxy-2-methyl-N-(5-(piperazin-1-yl)pyrazin-2-yl)-2H-pyrazolo[3,4-b]pyridine-5-carboxamide hydrochloride], 1 to 10 µM. Still for that read-out and setting: for `CCOc1cc2nn(C)cc2cc1C(=O)Nc1cnc(N2CCN(C)[C@@H](C)C2)cn1` [Compound 743, (S)—N-(5-(3,4-dimethylpiperazin-1-yl)pyrazin-2-yl)-6-ethoxy-2-methyl-2H-indazole-5-carboxamide formate] the value was 1 to 10 µM. On the same count and under the same terms, for `CCOc1cn2nc(C)cc2cc1C(=O)Nc1cnc(N2C[C@@H](C)N[C@@H](C)C2)cn1` [Compound 744, N-(5-((3S,5R)-3,5-dimethylpiperazin-1-yl)pyrazin-2-yl)-6-ethoxy-2-methylpyrazolo[1,5-a]pyridine-5-carboxamide hydrochloride] the value was 1 to 10 µM; for `CCOc1cc2nc(C)cn2cc1C(=O)Nc1ccc(N2CC3CN(C)CC3C2)nn1` (centres unmarked) [Compound 745, 7-ethoxy-2-methyl-N-(6-(5-methylhexahydropyrrolo[3,4-c]pyrrol-2(1H)-yl)pyridazin-3-yl)imidazo[1,2-a]pyridine-6-carboxamide formate], 1 to 10 µM. Take `COc1cc2nn(C)cc2cc1C(=O)Nc1cnc(N2CCNCC2)cn1` [Compound 746, 6-methoxy-2-methyl-N-(5-(piperazin-1-yl)pyrazin-2-yl)-2H-indazole-5-carboxamide formate]: the IC50 was in the range of 1 to 10 µM. Regarding `CCOc1cc2nn(C)cc2cc1C(=O)Nc1ccc(N2CCN(C(=O)OC(C)OC(=O)C(C)C)[C@@H](C)C2)nn1` (stereo partly drawn) [Compound 747, 1-(isobutyryloxy)ethyl (2S)-4-(6-(6-ethoxy-2-methyl-2H-indazole-5-carboxamido)pyridazin-3-yl)-2-methylpiperazine-1-carboxylate], the activation at 5 µM is above 75%. On the same count and under the same terms, for `CCOc1cc2nc(C)cn2cc1C(=O)Nc1ccc(N2CC3CNCC3C2)nn1` (centres unmarked) [Compound 748, (7-ethoxy-N-(6-(hexahydropyrrolo[3,4-c]pyrrol-2(1H)-yl)pyridazin-3-yl)-2-methylimidazo[1,2-a]pyridine-6-carboxamide formate] the value was above 75%; for `CCOc1cc2nn(C)cc2cc1C(=O)Nc1ccc(N2CCNCC2)nn1` [Compound 749, 6-ethoxy-2-methyl-N-(6-(piperazin-1-yl)pyridazin-3-yl)-2H-indazole-5-carboxamide hydrochloride], above 75%.

On to `CCOc1cc2nn(C)cc2cc1C(=O)Nc1ccc(N2CCN[C@H](C)C2)nn1` [Compound 750, (R)-6-ethoxy-2-methyl-N-(6-(3-methylpiperazin-1-yl)pyridazin-3-yl)-2H-indazole-5-carboxamide hydrochloride], for which the activation at 5 µM was above 75%.

With `CCOc1cc2nn(C)cc2cc1C(=O)Nc1ccc(N2C[C@@H](C)N[C@@H](C)C2)nn1` [Compound 751, N-(6-((3S,5R)-3,5-dimethylpiperazin-1-yl)pyridazin-3-yl)-6-ethoxy-2-methyl-2H-indazole-5-carboxamide hydrochloride], the activation at 5 µM is above 75%. As to `CCOc1cc2nn(C)cc2cc1C(=O)Nc1ccc(C2=CC(C)NCC2)nn1` (centres unmarked) [Compound 752, 6-ethoxy-2-methyl-N-(6-(6-methyl-1,2,3,6-tetrahydropyridin-4-yl)pyridazin-3-yl)-2H-indazole-5-carboxamide], the activation at 5 µM was above 75%. On the same count and under the same terms, the result for `CCOc1cn2nc(C)cc2cc1C(=O)Nc1ccc(N2CCNCC2)nn1` [Compound 753, 6-ethoxy-2-methyl-N-(6-(piperazin-1-yl)pyridazin-3-yl)pyrazolo[1,5-a]pyridine-5-carboxamide hydrochloride] reads above 75%; that for `CCOc1cn2nc(C)cc2cc1C(=O)Nc1ccc(C2=CCNCC2)nn1` [Compound 754, 6-ethoxy-2-methyl-N-(6-(1,2,3,6-tetrahydropyridin-4-yl)pyridazin-3-yl)pyrazolo[1,5-a]pyridine-5-carboxamide hydrochloride], above 75%.
